# Test results reported in patent US20060099712A1, “Correlation of anti-cancer activity of dyes with redox potentials” (Eastman Kodak Company, priority 2004, published 2006).
# Several values for one entry are separate records, joined by “and”; a condition that tells them apart may be missing. Equal entries are not always repeated.
# System: CX-1 Human Colon Carcinoma
# Assay: Clonogenic dye screening assay, CX-1 cells (IC50)
# Type: cell-based
# Design: CX: unit not given here
# Settings: for CV/CX (selectivity, kill ratio): ratio of IC50 in normal CV-1 line to IC50 in carcinoma CX-1 line; for CX: CX-1 cells; for CX (IC50 in the CX-1 cell line): 3 hrs treatment, colonies after 7-10 days, unit from method b117-118; for CV/C: selectivity ratio, value of 1 where dye inactive
# Description: CX-1 is a cancerous human colon adenocarcinoma cell line. CV-1 is a non-cancerous control, which is a kidney epithelial cell line from an African green monkey. IC50 is the dye concentration at which 50% of the cells are killed. Selectivity or kill ratio is defined as the ratio of […] at IC50 for both CX-1 and CV-1. A ratio with a high number indicates a high selectivity.
# The dyes were screened in two cell lines. CX-1 is a human colon adenocarcinoma cell line. CV-1 is a kidney epithelial cell line from an African green monkey. CV-1 was used as a reference because no normal human epithelial cell line is available for clonogenic assay.
# In the initial screen, dyes were examined at six different concentrations to generate a dose response curve. An IC50 value, the concentration at which 50% of the cells are killed, was then calculated. Initially, a dye concentration of 1.0 μg/mL was the highest examined for the CX-1 cell line and 0.005 μg/mL was the lower limit. The corresponding limits on the CV-1 cell line were […].
# The screening procedure used a response curve that was determined from eight dye concentrations. The upper and lower limits of CX-1 were 0.32 and 0.0015 μg/mL, respectively, and the corresponding revised limits on CV-1 were 3.2 and 0.025 μg/mL. The screening results were reported by assigning an IC50 value to each dye for the CV-1 and CX-1 cell lines. These values will be referred to herein simply as CV and CX. The most desirable result would be to have a dye that was highly toxic to carcinoma cells but nontoxic to ‘normal’ cells. One measure of this type of selectivity is the ratio of the IC50's in the normal cell line to that in the carcinoma line, CV/CX.
# Compounds are screened via an in vitro assay. CV-1 and CX-1 cells are seeded into separate assay plates. The plates are treated with varying concentrations of test compounds, rinsed, and colonies allowed to grow. IC50's are determined and drugs evaluated based on their selectivity and toxicity. Assay Steps: • I. Seeding Cells • II. Weighing • III. Preparation of Solution • IV. Treatment • V. Rinsing and Feeding • VI. Fixing • VII. IC50 Determination I. Seeding Cells
# The cells should be seeded 16-30 hours before treatment. The media for CV-1 cells is DME+5% calf serum +5% Nuserum. The media for CX-1 cells is RPMI/DME (50/50)+5% calf serum +5% Nuserum.
# (c) number of cells based on 2000 CX-1 cells/well and 1000 CV-1 cells/well. NOTE: Always make enough cell suspension for 1 extra plate to allow for volume loss during transfers.
# • (a) For CV-1: 256 ug/ml-256 ul of 1 mg/ml stock +744 ul DMSO • (b) For CX-1: 25.6 ug/ml-100 ul of 256 ug/ml+900 ul DMSO IV. Treatment • 1. Each plate is treated with 4 test compounds, one positive control and one negative control. • 2. Serial dilutions of the compounds are made in the following way:
# 2 multi-well pipetters are used. One is set for 10 ul and one for 200 ul. Each is equipped with 6 tips spaced such that they fit into the 6 rows of a plate. 390 ul of media is added to the first column of each plate. 10 ul each of 4 compound solutions, a positive and a negative control are taken up and put into the first column of wells. The 200 ul pipetter is then placed in the same wells, pipetted up and down 3 times and two 200 ul aliquots are moved to the next column of wells. This column is pipetted up and down 3 times and 400 ul moved to column 3, etc. The final 400 ul excess from column 8 is discarded.
# • 3. Label the plates along the front, each row −1 compound. • 4. Incubate the plates at 37° C. for 3 hrs. V. Rinsing • 1. Prepare several bottles of CX-1 and CV-1 media. • 2. Check for precipitate in first column of each plate and note. • 3. Starting with the plates treated first, rinse several plates at a time by aspirating the treatments and refilling each well with 0.5-1.0 ml of the rinse media. Aspirate and refill 2 more times for a total of 3 rinses. • 4.
# [1] = Table XVI, selectivity ratio of IC50 values
# [2] = Table XV, selectivity ratio of IC50 values
# [3] = Table XXI, oxathiacarbocyanine nitrogen substituents
# [4] = Table XX, thiacarbocyanine nitrogen substituents
# [5] = Table XX, ratio given a value of 1 where dye inactive
Structure (SMILES),"CV/CX (selectivity, kill ratio)",CX [3],CV/C (Table XXI),further results
CCN1C(=CC=c2sc(=Cc3sc4c([n+]3CC)CCCC4)n(CC)c2=O)Oc2ccccc21.[I-] (mixture of isomers) [Dye D-170],100.0,,,
"CCN1/C(=C/C=C/c2sc3ccccc3[n+]2CC)C(C)(C)c2ccccc21 [3H-indole (3,3-Me)]",,,,"CX (Table XVI, unsymmetrical dyes): 0.16; CV/CX [1]: 0.3"
"CCN1C=CC(=C/C=C/c2sc3ccccc3[n+]2CC)c2ccsc21 [4-thieno/2,3-b/pyridine]",,,,"CX (Table XVI, unsymmetrical dyes): 0.04; CV/CX [1]: 5.0"
CC[n+]1c(/C=C/C=C2C=CC=CN2C)sc2ccccc21 [Dye 2-pyridine],,,,"CX (Table XVI, unsymmetrical dyes): 0.08; CV/CX [1]: 50.0"
CCN1C(=C/C=C/c2sc3ccccc3[n+]2C)C=Cc2ccccc21 [Dye 2-quinoline],,,,"CX (Table XVI, unsymmetrical dyes): <0.005; CV/CX [1]: >20.0"
CC[n+]1c(/C=C/C=C2C=CN(C)c3ccccc32)sc2ccccc21 [Dye 4-quinoline],,,,"CX (Table XVI, unsymmetrical dyes): 0.01; CV/CX [1]: 40.0"
CCN1C=C(c2ccccc2)SC1=CC=Cc1sc2ccccc2[n+]1CC [Dye 5-Ph-thiazole],,,,"CX (Table XVI, unsymmetrical dyes): 0.03; CV/CX [1]: 16.7"
CN1C(=CC=Cc2[te]c3ccccc3[n+]2C)[Te]c2ccccc21 [Dye B19682],,,,"CX (Table XV, symmetrical dyes): 0.3; CV/CX [2]: 16.7"
CCN1C(=CC=Cc2ccc3ccccc3[n+]2CC)C=Cc2ccccc21 [Dye B-301],,,,"CX (Table XV, symmetrical dyes): 0.040; CV/CX [2]: 12.5"
CCN1C(=CC=Cc2oc3ccccc3[n+]2CC)Oc2ccccc21 [Dye B-400],,,,"CX (Table XV, symmetrical dyes): 0.10; CV/CX [2]: 30.0"
CN1C(=CC=Cc2[se]c3ccccc3[n+]2C)[Se]c2ccccc21 [Dye B-405],,,,"CX (Table XV, symmetrical dyes): 0.008; CV/CX [2]: 7.5"
C(/C=C/c1sc2cccc3c2[n+]1CCC3)=C1/Sc2cccc3c2N1CCC3 [Dye D-102],160,,,CX (IC50 in the CX-1 cell line): <0.005 µg/mL
CCN1/C(=C/C=C/c2sc3cc(Cl)ccc3[n+]2CC)Sc2cc(Cl)ccc21 [Dye D-105],112.5,,,"CX (IC50 in the CX-1 cell line): 0.008 µg/mL; Selectivity (Table 1, cell line not given, values equal CV/CX of Table II): 112.5"
CCN(CC)CCN1/C(=C/C=C/c2oc3ccccc3[n+]2CC)Sc2ccccc21.I.[I-] [Dye D-116],80,,,
CCN1C=C(c2ccccc2)O/C1=C\C=C\c1oc(-c2ccccc2)c[n+]1CC.[I-] [Dye D-118],93.75,,,CX (IC50 in the CX-1 cell line): 0.08 µg/mL
CC[n+]1c(/C=C/C=C2\SC(C)=C(C)N2C)oc2ccccc21.[I-] [Dye D-119],60,,,CX (IC50 in the CX-1 cell line): 0.05 µg/mL
CCN1/C(=C/C=C/c2c3ccccc3c3ccccc3[n+]2C)Sc2ccccc21 [Dye D-129],87.5,,,"CX (IC50 in the CX-1 cell line): 0.008 µg/mL; CX (Table XVI, unsymmetrical dyes): 0.008; CV/CX [1]: 87.5"
CCn1c(=O)/c(=C/C=C2\C=Cc3cccc4c3N2CCC4)s/c1=C\c1oc2ccccc2[n+]1CC [Dye D-143],100,,,CX (IC50 in the CX-1 cell line): 0.1 µg/mL
CC[n+]1c(/C=C/C=C2\[Te]c3ccccc3N2C)sc2ccc3ccccc3c21.[I-] [Dye D-151],71 and 71.42,,,"CX (IC50 in the CX-1 cell line): 0.007 µg/mL; CX (Table XVII, benzotellurazole derivatives): 0.007; CV/CX (Table XVII, selectivity ratio of IC50 values): 71.4"
CCN1/C(=C/C=C/c2oc3ccc(-c4ccccc4)cc3[n+]2CCNC(C)=O)Sc2ccc(OC)cc21.F[B-](F)(F)F [Dye D-154],160,,,CX (IC50 in the CX-1 cell line): 0.05 µg/mL
CCN1/C(=C/C=C/c2sc3cc(Cl)ccc3[n+]2CC)Sc2cc(Cl)ccc21.[I-] [Dye D-164],112.5,,,

Structure (SMILES),"CV/CX (selectivity, kill ratio)",CX [3],CV/C (Table XXI),further results
CCN1/C(=C/C=C/c2sc3ccccc3[n+]2CC)Sc2ccccc21.[I-] [Dye D-165],100,,,CV/CX [1]: 100.0
CCN1/C(=C/C(=C/c2oc3ccccc3[n+]2C)SC)Sc2ccc(Cl)cc21.[I-] [Dye D-169],100.0,,,
CCOC(=O)c1c(C)c(C=CC=C2SCCN2C)cc2[n+]1CCc1ccccc1-2.[O-][Cl+3]([O-])([O-])[O-] [Dye D-171],62.5,,,
"C=C(Br)C[n+]1c(/C=C/C=C2\Oc3ccccc3N2CC)sc2ccccc21 [R1=CC(Br)═C, R2=Et]",,0.03,33.3,
"CCN(CC)C(=O)C[n+]1c(/C=C/C=C2\Oc3ccccc3N2CC)sc2ccccc21 [R1=CC(═0)N(Et)2, R2=Et]",,0.3,>33.3,
"CCN1/C(=C/C=C/c2sc3ccccc3[n+]2CC(=O)c2ccccc2)Oc2ccccc21 [R1=CC(═0)Ph, R2=Et]",,0.3,10.0,
"CCN1/C(=C/C=C/c2sc3ccccc3[n+]2CC(=O)c2ccc(O)cc2O)Oc2ccccc21 [R1=CC(═0)Ph-2,4-OH, R2=Et]",,0.3,>33.3,
"CCN1/C(=C/C=C/c2sc3ccccc3[n+]2CC(=O)c2ccc(O)c(O)c2)Oc2ccccc21 [R1=CC(═0)Ph-3,4-OH, R2=Et]",,>1.0,1.0,
"CCN1/C(=C/C=C/c2sc3ccccc3[n+]2CC(=O)N2CCOCC2)Oc2ccccc21 [R1=CC(═0)morpholino, R2=Et]",,>1.0,1.0,
"CCN1/C(=C/C=C/c2sc3ccccc3[n+]2CC(N)=O)Oc2ccccc21 [R1=CC(═O)N, R2=Et]",,,>10.0,
"CCSC(CCN1/C(=C/C=C/c2sc3ccccc3[n+]2CCC(SCC)SCC)Sc2ccccc21)SCC [R1=CCC(SEt)2, R2=CCC(SEt)2]",,,,CX [4]: >0.32; CV/CX [5]: 4.1
"CCN1/C(=C/C=C/c2sc3ccccc3[n+]2CCC(=O)N(c2ccccc2)C(C)C)Oc2ccccc21 [R1=CCC(═O)N(iPr)Ph, R2=Et]",,0.03,26.7,
"CCN1/C(=C/C=C/c2sc3ccccc3[n+]2CCC=O)Oc2ccccc21 [R1=CCC═0, R2=Et]",,0.1,50.0,
"CCN1/C(=C/C=C/c2sc3ccccc3[n+]2CCC=NNC(N)=S)Oc2ccccc21 [R1=CCC═NNC(═S)N, R2=Et]",,>1.0,1.0,
"CCN1/C(=C/C=C/c2sc3ccccc3[n+]2CCC=NNS(=O)(=O)c2ccc(C)cc2)Oc2ccccc21 [R1=CCC═NNS02Ph-4C, R2=Et]",,0.3,33.3,
"CCN1/C(=C/C=C/c2sc3ccccc3[n+]2CCNS(=O)(=O)c2ccc(C)cc2)Oc2ccccc21 [R1=CCNS02Ph-4C, R2=Et]",,0.3,26.7,
"OCCN1/C(=C/C=C/c2sc3ccccc3[n+]2CCO)Sc2ccccc21 [R1=CCOH, R2=CCOH]",,,,CX [4]: >0.32; CV/CX [5]: 1.0
"CCN1/C(=C/C=C/c2sc3ccccc3[n+]2CCS(=O)(=O)CC)Oc2ccccc21 [R1=CCS02CC, R2=Et]",,0.3,>33.3,
"CSCCN1C(=CC=Cc2sc3ccccc3[n+]2CCSC)Sc2ccccc21 [R1=CCSMe, R2=CCSMe]",,,,CX [4]: 0.015; CV/CX [5]: 12.0
"CC[n+]1c(/C=C/C=C2\Oc3ccccc3N2CC(=O)c2ccccc2)sc2ccccc21 [R1=Et, R2=C(C═O)Ph]",,0.8,3.7,
"CC[n+]1c(/C=C/C=C2\Oc3ccccc3N2CC(F)(F)F)sc2ccccc21 [R1=Et, R2=CC(F)3]",,0.1,50.0,
